Experimental data as given in PMC5334708, “Mosquitocidal Activity and Mode of Action of the Isoxazoline Fluralaner” (International Journal of Environmental Research and Public …, 2017).

Key:
[1] = biological target: T1, mammalian GABAA α1β3γ2 receptor (Homo sapiens, UniProt P14867+P18507+P28472); test: whole-cell planar patch clamp, block of GABA EC80 current in transfected HEK293 cells; type: cell-based
T1 construct: gene GABRA1; with GABRB3 (β3) and GABRG2 (γ2) subunits

[2] = biological target: T1, mammalian GABAA α1β3γ2 receptor; test: whole-cell planar patch clamp, block of GABA EC80 current in transfected HEK293 cells (antagonist positive control); type: cell-based

T1 sequence (P14867 28-456): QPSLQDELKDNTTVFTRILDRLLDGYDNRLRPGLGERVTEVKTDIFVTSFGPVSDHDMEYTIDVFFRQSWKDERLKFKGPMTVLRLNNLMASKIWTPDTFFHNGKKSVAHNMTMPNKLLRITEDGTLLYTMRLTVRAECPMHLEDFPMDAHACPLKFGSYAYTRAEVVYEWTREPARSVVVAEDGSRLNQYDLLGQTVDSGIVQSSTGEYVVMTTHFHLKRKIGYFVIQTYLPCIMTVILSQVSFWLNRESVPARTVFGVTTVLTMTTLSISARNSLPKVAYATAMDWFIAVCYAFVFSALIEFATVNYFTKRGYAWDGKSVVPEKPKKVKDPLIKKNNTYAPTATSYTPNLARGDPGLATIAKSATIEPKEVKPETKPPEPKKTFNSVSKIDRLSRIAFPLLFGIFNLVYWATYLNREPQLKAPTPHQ
T1 sequence (P28472 26-473): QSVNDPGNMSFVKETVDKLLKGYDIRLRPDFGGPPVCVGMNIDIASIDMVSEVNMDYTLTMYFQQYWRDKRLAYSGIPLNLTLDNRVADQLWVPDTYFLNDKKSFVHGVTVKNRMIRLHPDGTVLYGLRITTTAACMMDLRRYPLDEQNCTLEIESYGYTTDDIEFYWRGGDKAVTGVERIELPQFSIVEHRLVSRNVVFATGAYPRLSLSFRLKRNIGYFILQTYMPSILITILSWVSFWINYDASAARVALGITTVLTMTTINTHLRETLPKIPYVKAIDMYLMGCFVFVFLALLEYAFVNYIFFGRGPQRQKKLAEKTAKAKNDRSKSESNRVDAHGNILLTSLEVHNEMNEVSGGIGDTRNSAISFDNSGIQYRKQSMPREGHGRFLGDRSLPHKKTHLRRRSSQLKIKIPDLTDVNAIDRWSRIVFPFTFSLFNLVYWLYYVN
T1 sequence (P18507 40-475): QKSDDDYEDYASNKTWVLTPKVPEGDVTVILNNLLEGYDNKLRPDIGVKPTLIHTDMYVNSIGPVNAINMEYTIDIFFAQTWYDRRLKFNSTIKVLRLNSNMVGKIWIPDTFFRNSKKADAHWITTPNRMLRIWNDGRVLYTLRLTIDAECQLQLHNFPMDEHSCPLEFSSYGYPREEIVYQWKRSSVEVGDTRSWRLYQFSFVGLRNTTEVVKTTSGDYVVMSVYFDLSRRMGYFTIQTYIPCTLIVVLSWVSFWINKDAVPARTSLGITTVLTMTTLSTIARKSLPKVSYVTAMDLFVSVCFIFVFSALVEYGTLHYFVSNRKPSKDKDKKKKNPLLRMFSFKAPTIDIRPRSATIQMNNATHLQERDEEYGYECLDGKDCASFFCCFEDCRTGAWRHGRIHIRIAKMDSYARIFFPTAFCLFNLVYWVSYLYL

Compound	IC50 [1] [µM]	IC50 [2] [µM]
N#Cc1nn(-c2c(Cl)cc(C(F)(F)F)cc2Cl)c(N)c1[S+]([O-])C(F)(F)F (centres unmarked) [fipronil]	4.9	
C=C(C)[C@@H]1[C@H]2OC(=O)[C@@H]1[C@]1(O)C[C@H]3OC34C(=O)O[C@H]2[C@@]41C.CC(C)(O)[C@@H]1[C@H]2OC(=O)[C@@H]1[C@]1(O)C[C@H]3OC34C(=O)O[C@H]2[C@@]41C (some centres unmarked) [picrotoxin]		3.9
